# Source: paper PMC12415477, “Electrostatic interactions influence diazabicyclooctane inhibitor potency against OXA-48-like β-lactamases” (RSC Medicinal Chemistry, 2025)
# B1: OXA-48 β-lactamase (residues 23-265) (enzyme)
# chain: KEWQENKSWNAHFTEHKSQGVVVLWNENKQQGFTNNLKRANQAFLPASTFKIPNSLIALDLGVVKDEHQVFKWDGQTRDIATWNRDHNLITAMKYSVVPVYQEFARQIGEARMSKMLHAFDYGNEDISGNVDSFWLDGGIRISATEQISFLRKLYHNKLHVSERSQRIVKQAMLTEANGDYIIRAKTGYSTRIEPKIGWWVGWVELDDNVWFFAMNMDMPTSDGLGLRQAITKEVLKQEKIIP
# notes: also called OXA-48^(23-265); OXA-48 carbapenemase; source: E. coli BL21-DE3, purified (Ni-NTA, 3C protease cleavage, second Ni-NTA, Superdex 75 SEC)
# B2: OXA-163 β-lactamase (mature, residues 23-261) (enzyme)
# chain: KEWQENKSWNAHFTEHKSQGVVVLWNENKQQGFTNNLKRANQAFLPASTFKIPNSLIALDLGVVKDEHQVFKWDGQTRDIATWNRDHNLITAMKYSVVPVYQEFARQIGEARMSKMLHAFDYGNEDISGNVDSFWLDGGIRISATEQISFLRKLYHNKLHVSERSQRIVKQAMLTEANGDYIIRAKTGYDTKIGWWVGWVELDDNVWFFAMNMDMPTSDGLGLRQAITKEVLKQEKIIP
# notes: source: E. coli BL21-DE3, purified (Ni-NTA, 3C protease cleavage, second Ni-NTA, Superdex 75 SEC)
# Tests used:
# OXA-48 [1] = target: T1, OXA-48 (Klebsiella pneumoniae, UniProt Q6XEC0); settings: cited from earlier work; for Binding affinities and complex residence times against OXA-48: in words
# T1 construct: pOPINF-OXA-48^(23-265) (previously cloned as described in Cahill et al); hexahistidine tag with 3C protease site (pOPINF) (N, cleaved yes); made in house; host or cells: E. coli BL21-DE3
# OXA-48 [2] = target: T1, OXA-48; test: IC50 determination, inhibition of nitrocefin hydrolysis by OXA-48; format: biochemical; settings: for Fold difference in IC50, nacubactam versus avibactam, OXA-48: ratio nacubactam IC50 / avibactam IC50
# OXA-163 [3] = test: IC50 determination, inhibition of nitrocefin hydrolysis by OXA-163; format: biochemical; settings: IC50 OXA-48 / IC50 OXA-163
# OXA-405 [4] = test: IC50 determination, inhibition of nitrocefin hydrolysis by OXA-405; format: biochemical; settings: IC50 OXA-48 / IC50 OXA-405
# OXA-163 [5] = target: T2, OXA-163 (Klebsiella pneumoniae, UniProt Q6XEC0, DEL214-217/S212D); test: IC50 determination, inhibition of nitrocefin hydrolysis by OXA-163; format: biochemical; set-up: genes encoding the mature OXA-163^23-261 (GenBank HQ700343); hexahistidine tag with 3C protease site (pOPINF) (N, cleaved yes); made in house; host or cells: E. coli BL21-DE3
# OXA-405 [6] = target: T3, OXA-405 (Klebsiella pneumoniae, UniProt Q6XEC0, DEL213-216); test: IC50 determination, inhibition of nitrocefin hydrolysis by OXA-405; format: biochemical; set-up: genes encoding the mature OXA-163^23-261 (GenBank HQ700343) and OXA-405^23-261 (GenBank KM589641) open reading frames; hexahistidine tag with 3C protease site (pOPINF) (N, cleaved yes); made in house; host or cells: E. coli BL21-DE3
# OXA-163 [7] = target: T2, OXA-163; settings: 1 nM enzyme, pH 7.6
# Procedure: (§1) All enzyme kinetics experiments were performed in 50 mM HEPES pH 7.6, 50 mM NaPO4 buffer supplemented with 50 mM NaHCO3 and 50 μg mL^−1 bovine serum albumin (BSA) in 96-well half area plates (Greiner, 675801).
# OXA-405 [8] = target: T3, OXA-405; settings: 1 nM enzyme, pH 7.6
# Procedure: as §1
# [9] = system: O=C(Cc1cccs1)N[C@@H]1C(=O)N2C(C(=O)O)=C(/C=C/c3ccc([N+](=O)[O-])cc3[N+](=O)[O-])CS[C@H]12; test: purified protein, by the assay type; settings: other: 1 nM enzyme, pH 7.6
# [10] = target: OXA-405 β-lactamase (mature, residues 23-261); test: crystal structure; X-ray structures of the purified enzymes, uncomplexed and soaked with nacubactam or avibactam; crystals grown in 0.1 M HEPES pH 7.5 or 0.1 M Tris pH 8.5-9.0 with PEG 400 or PEG 550; homodimer seen in the crystal, chloride ion at the dimer interface
# crystal structure = target: the molecule itself; test: crystal structure
# [11] = ratio nacubactam IC50 / avibactam IC50
molecule,measurement,setting,value
O=C(NO[C@@H]1CCNC1)[C@@H]1CC[C@@H]2CN1C(=O)N2OS(=O)(=O)O [FPI-1465],Binding affinities and complex residence times against OXA-48,OXA-48 [1],lower binding affinities and complex residence times
O=C(NNC(=O)[C@@H]1CC[C@@H]2CN1C(=O)N2OS(=O)(=O)O)C1CNC1 [FPI-1602],Binding affinities and complex residence times against OXA-48,OXA-48 [1],lower binding affinities and complex residence times
NCCONC(=O)[C@@H]1CC[C@@H]2CN1C(=O)N2OS(=O)(=O)O [nacubactam],IC50,"OXA-48 [2]; 1 nM enzyme pre-incubated 10 min with inhibitor, 75 μM nitrocefin, pH 7.6, read-out: IC50 against OXA-48",19.9 µM
same,"Fold difference in IC50, nacubactam versus avibactam, OXA-48",OXA-48 [2],77 fold
same,"Fold difference in IC50, nacubactam versus avibactam, OXA-48",OXA-48 [2]; listed as Nacubactam,76.6 fold
same,Increase in inhibition potency towards OXA-163 compared to OXA-48,OXA-163 [3],16.2 fold
same,Increase in inhibition potency towards OXA-405 compared to OXA-48,OXA-405 [4],1.9 fold
same,"Decrease in enzyme : inhibitor residence time (t1/2) compared to avibactam, OXA-48",OXA-48 [1],approximately 37 fold
same,"Increase in dissociation rate (koff) compared to avibactam, OXA-48",OXA-48 [1],~36 fold
same,IC50,OXA-163 [5],1.23 µM
same,"Fold difference in IC50, nacubactam versus avibactam, OXA-163",OXA-163 [5]; [11],6.2 fold
same,IC50,OXA-405 [6],10.6 µM
same,"Fold difference in IC50, nacubactam versus avibactam, OXA-405",OXA-405 [6]; [11],10.7 fold
O=C(Cc1cccs1)N[C@@H]1C(=O)N2C(C(=O)O)=C(/C=C/c3ccc([N+](=O)[O-])cc3[N+](=O)[O-])CS[C@H]12 [nitrocefin],"kcat, nitrocefin hydrolysis by OXA-163",OXA-163 [7],64.5 s⁻¹
same,Km,"OXA-163 [7]; read-out: KM, nitrocefin hydrolysis by OXA-163",13.4 µM
same,"kcat, nitrocefin hydrolysis by OXA-405",OXA-405 [8],113.9 s⁻¹
same,Km,"OXA-405 [8]; read-out: KM, nitrocefin hydrolysis by OXA-405",33.9 µM
OXA-48 (Klebsiella pneumoniae),Km,[9],114.4 µM
same,kcat,[9],515.0 s⁻¹
same,kcat/Km,[9],5.2e+06 M⁻¹ s⁻¹
"OXA-405 β-lactamase (mature, residues 23-261) (enzyme)",stoichiometry N,[10],2
B1,stoichiometry N,crystal structure,2
B2,stoichiometry N,crystal structure,2
